Laboratory results taken from patent publication US10398725B2, “Ophthalmic compositions and methods of use” (Veloce BioPharma, LLC, priority 2015, dated 2019).

Assays:
Assay type in all cases: in vivo, human
[1] = tested on: eyelid associated molluscum contagiosum; assay: Example 21: patient with eyelid molluscum contagiosum; conditions: before the PVP-I/DMSO composition
Procedure: Eyelid Molluscum Contagiosum; Treated with 9% PVP-I in 39% USP Grade DMSO with 3% Hydroxyethylcellulose
This patient was suffering from an eyelid associated molluscum contagiosum. […] The process is often associated with pox virus infection of the epithelial layers. […] Cryotherapy with excision was eventually performed, however, the lesions recurred. Prepared was a composition as disclosed herein using 0.9% PVP-I in 39% DMSO with hydroxyethyl cellulose. The patient was treated by applying the solution topically to the eyelid and margin structures four times daily. […] The lesions had begun to involute and diminish in surface area.

[2] = tested on: rosacea blepharoconjunctivitis; assay: Example 3B: person with rosacea blepharoconjunctivitis; conditions: before the PVP-I/DMSO gel
From the text: B. Rosacea Blepahritis; Treated with 1% PVP-I in 44% USP Grade DMSO with 4% Hydroxyethylcellulose in Water
A person with a past ocular history of glaucoma and pseudophakia presented with long standing ocular dryness, grittiness, periocular erythema and eyelid crusting. On facial inspection, nasal and facial telangiectasia with flushing were evident. Their topical medical regimen included Latanoprost 1 drop QHS OU, Brimonidine 1 drop BID OU, and Dorzolamide/Timolol 1 drop BID OU. The patient endorsed utilization of a variety of medicines and treatments to abate this condition, however, they were of little benefit. Failed therapies included topical steroids, antibiotics including azithromycin, combination medicines, and cyclosporine. Oral medicines including doxycycline and DHA/ALA/EPA were also ineffective.
Further towards the posterior tarsal area, dilated, engorged telangiectatic vessels were present. […] A diagnosis of rosacea blepharoconjunctivitis was made.
The patient was given a topical gel of 1% PVP-I in a dimethylsulfoxide (DMSO) vehicle that was prepared from a licensed compounding pharmacy. The treatment was administered twice daily and delivered by rubbing the gel onto the lash line and eyelid. […] Most prominently, much of the conjunctivitis, anterior lid erythema and thickening had reversed. […]

[3] = tested on: Acanthamoeba corneal ulceration; assay: Example 16: patient with Acanthamoeba corneal ulceration; conditions: before the PVP-I/DMSO composition
From the text: Acanthamoeba Corneal Ulceration; Treated with Aqueous 0.4% PVP-I in 39% USP Grade DMSO with Hydroxyethyl Cellulose
This patient was suffering from an Acanthamoeba corneal ulceration. In this type of infection there is often a history of contact lens use and home-made contact lens solutions, however, this is not a prerequisite. Acanthamoeba parasites are often introduced into the eye through a small break in the epithelium and gains foothold to the underlying structures. The patient endorses pain out of proportion with examination. […] The cornea contained multiple bullous lesions with enlarged corneal nerves. There was an overlying epithelial defect and faint ring-shaped infiltrate. The infiltrate had induced minimal stromalysis and the resultant cornea was not thinned. There was no hypopyon, however, cell and flare were present. Corneal cultures were taken, and Acanthamoeba species were identified on non-nutrient agar with E. coli overlay. […] Prepared was a composition as disclosed herein using 0.4% PVP-I in 39% DMSO with hydroxyethyl cellulose. The patient was treated by applying the solution topically to the eye six times daily. […] The corneal had begun the process of re-epithelialization and the ring ulcer began to lessen in intensity. […] A central corneal cicatrix was evident in the area of previous active infiltrate.

`O=C(O)c1ccccc1O` [salicylic acid] was tested, and the “outcome of earlier therapies (patient history)” value (“outcome of earlier therapies” for short) [1] was “without benefit”.

In the case of `CC[C@H]1OC(=O)[C@H](C)[C@@H](O[C@H]2C[C@@](C)(OC)[C@@H](O)[C@H](C)O2)[C@H](C)[C@@H](O[C@@H]2O[C@H](C)C[C@H](N(C)C)[C@H]2O)[C@](C)(O)C[C@@H](C)CN(C)[C@H](C)[C@@H](O)[C@]1(C)O` [azithromycin], the “outcome of earlier therapies” value [2] was “Failed”.

With `[H]/N=C(\N/C(=N/[H])NCCCCCCNC(=N)NC(=N)Nc1ccc(Cl)cc1)Nc1ccc(Cl)cc1` [chlorhexidine] the “outcome of earlier therapies” value [3] was “without benefit”.

`N=C(N)c1ccc(OCCCOc2ccc(C(=N)N)cc2)cc1` [propamidine] was tested, and the “outcome of earlier therapies” value [3] was “without benefit”.

`CC(C)Cn1cnc2c(N)nc3ccccc3c21` [imiquimod] was tested, and the “outcome of earlier therapies” value [1] was “without benefit”.
